Patent US10842892B2, “Methods and apparatus for synthesizing imaging agents, and intermediates thereof” (Lantheus Medical Imaging, Inc., priority 2010, dated 2020)
Where “and” joins values, the source holds several entries; their conditions need not be identical. Equal entries are not always repeated.

Tests used:
patients = assay: Phase 2 clinical safety of imaging agent 1 injection; format: in vivo, human
healthy adults = assay: whole-organ biodistribution and residence times by whole-body PET; format: in vivo, human; conditions: for Mean Percent Administered Dose, Brain / Mean Percent Administered Dose, GI Stomach Wall / Mean Percent Administered Dose, Heart Wall / Mean Percent Administered Dose, Kidneys / Mean Percent Administered Dose, Liver / Mean Percent Administered Dose, Marrow (lumbar) / Mean Percent Administered Dose, Salivary / Mean Percent Administered Dose, Spleen / Mean Percent Administered Dose, Thyroid / Mean Percent Administered Dose, Urinary Bladder / Mean Percent Administered Dose, Whole Body: N = 12, decay corrected
Procedure: Whole-body PET imaging from head to mid thigh was performed at protocol-specified time-windows.
The attenuation corrected transverse image data slice planes were combined into a single three-dimensional image matrix for each subject and each time point using custom software. These images were then divided into 6 image sets (“anterior”, “posterior”, “salivary”, “thyroid”, “source”, and “full”) of combined coronal plane image data for each subject at each time point, grouping organs with similar anterior to posterior depths. This was done to optimize the ROI creation, and minimize background contribution to the organs contained in each combined coronal plane image. The “anterior” images contained stomach wall, heart wall, and urinary bladder. The “posterior” images contained kidneys, lumbar spine, and spleen (when visible). The “salivary” images contained the salivary glands (parotid and submandibular). The “thyroid” images contained the thyroid. The “full” images combined all of the coronal image planes that contained subject image data and was used for quantification of the brain and liver. The “source” images contained the calibration source.
Absolute radioactivity was determined by normalizing ROI sums by a calibration factor derived from the calibration source. Region counts were also adjusted for activity containing underlying and overlying tissue that was not part of the organ or tissue being quantified by utilization of background regions of interest. Total body region counts were also corrected for off body background counts. Appropriate normalization of region sizes for organ and adjacent regions were made. Unobstructed regions of organs with significant overlap from other activity containing organs were also employed where necessary. In order to estimate the activity in the lower legs (which were not imaged), a region of interest on the upper thigh was utilized. Activities were also normalized where necessary to account for 100% of the injected activity, and to insure conservative (slight over-estimates) determination of absorbed dose.
Kinetic data for brain, heart wall, kidneys, liver, red marrow (lumbar spine regions were utilized), salivary glands, spleen, stomach wall, thyroid, and urinary bladder for the subjects in the study were determined using image quantification methodology. Absolute activity was converted to fractional dose by dividing by the total activity administered. Organ and tissue data were fit using non-linear least-squares regression with sums of exponentials of the form shown in Equation 1, where f and λ are the model parameters that are determined in the fitting process, Fij(t) is the fraction of the total injected activity, t is the time post injection, i is the i^th ROI, j is the j^th subject, and k is the k^th exponential term. Between one and four exponential terms were employed, as appropriate.
The regression was performed using custom software that determines initial parameter values based on the temporal variation of the kinetic data, and the use of pre-tabulated estimates for various time activity scenarios as selected by the user. […] Remainder of Body residence times were determined by subtraction of appropriate organ residence times from whole body residence times. Urinary bladder residence times were determined using the parameters determined by fitting the whole body activity data with a urinary bladder model as implemented in the OLINDA/EXM software with 3.5 hour bladder voiding interval. Red marrow residence time was determined based on a region of interest drawn on a portion of the lumbar spine. The lumbar spine was assumed to contain 16.1% (International Commission on Radiological Protection (ICRP) Publication 23, Report of the Task Group on Reference Man. Pergamon Press. 1975, page 125) of the total red marrow.

anesthetized naive dogs = assay: cardiovascular changes in anesthetized naive dogs; format: in vivo, dog; conditions: intravenous injection, unpublished data
[1] = N = 12, Void Interval = 3.5 hours
[2] = whole body coronal images, representative subject

## CC(C)(C)n1ncc(OCc2ccc(COCC[18F])cc2)c(Cl)c1=O [imaging agent 1, 2-t-butyl-4-chloro-5-[4-(2-(^18F)fluoroethoxymethyl)-benzyloxy]-2H-pyridazin-3-1]
patients; 143 patients
  AEs judged to be related to the study drug: 7
  patients with AEs judged to be related to the study drug: 2
  seriousness of related AEs: none were serious
  treatment emergent adverse events (AEs) reported: 100
patients; human, in vivo
  ECG at rest: effect on heart rate, PR interval, QRS duration, QTcF duration: no evidence of any clinically relevant effect
patients; of 143 patients
  patients reporting treatment emergent adverse events: 61
Healthy adults; 0.17 hr post-dose
  Mean Percent Administered Dose, Brain: 8.3%
  Mean Percent Administered Dose, GI Stomach Wall: 2.5%
  Mean Percent Administered Dose, Heart Wall: 3.1%
  Mean Percent Administered Dose, Kidneys: 9.4%
  Mean Percent Administered Dose, Liver: 19.1%
  Mean Percent Administered Dose, Marrow (lumbar): 0.3%
  Mean Percent Administered Dose, Salivary: 0.6%
  Mean Percent Administered Dose, Spleen: 0.9%
  Mean Percent Administered Dose, Thyroid: 0.1%
  Mean Percent Administered Dose, Urinary Bladder: 0.3%
  Mean Percent Administered Dose, Whole Body: 100.0%
Healthy adults; 0.50 hr post-dose
  Mean Percent Administered Dose, Brain: 7.9%
  Mean Percent Administered Dose, GI Stomach Wall: 2.4%
  Mean Percent Administered Dose, Heart Wall: 3.2%
  Mean Percent Administered Dose, Kidneys: 6.5%
  Mean Percent Administered Dose, Liver: 18.0%
  Mean Percent Administered Dose, Marrow (lumbar): 0.3%
  Mean Percent Administered Dose, Salivary: 0.7%
  Mean Percent Administered Dose, Spleen: 0.6%
  Mean Percent Administered Dose, Thyroid: 0.1%
  Mean Percent Administered Dose, Urinary Bladder: 0.2%
  Mean Percent Administered Dose, Whole Body: 99.8%
Healthy adults; 0.83 hr post-dose
  Mean Percent Administered Dose, Brain: 7.3%
  Mean Percent Administered Dose, GI Stomach Wall: 2.2%
  Mean Percent Administered Dose, Heart Wall: 3.4%
  Mean Percent Administered Dose, Kidneys: 4.9%
  Mean Percent Administered Dose, Liver: 16.4%
  Mean Percent Administered Dose, Marrow (lumbar): 0.3%
  Mean Percent Administered Dose, Salivary: 0.6%
  Mean Percent Administered Dose, Spleen: 0.4%
  Mean Percent Administered Dose, Thyroid: 0.1%
  Mean Percent Administered Dose, Urinary Bladder: 0.3%
  Mean Percent Administered Dose, Whole Body: 99.7%
Healthy adults; 2.0 hr post-dose
  Mean Percent Administered Dose, Brain: 4.7%
  Mean Percent Administered Dose, GI Stomach Wall: 0.7%
  Mean Percent Administered Dose, Heart Wall: 2.4%
  Mean Percent Administered Dose, Kidneys: 1.6%
  Mean Percent Administered Dose, Liver: 7.5%
  Mean Percent Administered Dose, Salivary: 0.5%
  Mean Percent Administered Dose, Spleen: 0.3%
  Mean Percent Administered Dose, Thyroid: 0.1%
  Mean Percent Administered Dose, Urinary Bladder: 0.9%
  Mean Percent Administered Dose, Whole Body: 98.2%
Healthy adults; 2.5 hr post-dose
  Mean Percent Administered Dose, Brain: 4.1%
  Mean Percent Administered Dose, GI Stomach Wall: 0.7%
  Mean Percent Administered Dose, Heart Wall: 2.5%
  Mean Percent Administered Dose, Kidneys: 1.6%
  Mean Percent Administered Dose, Liver: 7.0%
  Mean Percent Administered Dose, Salivary: 0.5%
  Mean Percent Administered Dose, Spleen: 0.3%
  Mean Percent Administered Dose, Thyroid: 0.1%
  Mean Percent Administered Dose, Urinary Bladder: 1.1%
  Mean Percent Administered Dose, Whole Body: 98.1%
Healthy adults; 3.83 hr post-dose
  Mean Percent Administered Dose, Brain: 3.2%
  Mean Percent Administered Dose, GI Stomach Wall: 0.6%
  Mean Percent Administered Dose, Heart Wall: 2.1%
  Mean Percent Administered Dose, Kidneys: 1.2%
  Mean Percent Administered Dose, Liver: 4.5%
  Mean Percent Administered Dose, Salivary: 0.4%
  Mean Percent Administered Dose, Spleen: 0.3%
  Mean Percent Administered Dose, Thyroid: 0.1%
  Mean Percent Administered Dose, Urinary Bladder: 1.4%
  Mean Percent Administered Dose, Whole Body: 96.8%
Healthy adults; 4.5 hr post-dose
  Mean Percent Administered Dose, Brain: 2.9%
  Mean Percent Administered Dose, GI Stomach Wall: 0.6%
  Mean Percent Administered Dose, Heart Wall: 2.1%
  Mean Percent Administered Dose, Kidneys: 1.1%
  Mean Percent Administered Dose, Liver: 4.7%
  Mean Percent Administered Dose, Salivary: 0.4%
  Mean Percent Administered Dose, Thyroid: 0.1%
  Mean Percent Administered Dose, Urinary Bladder: 1.7%
  Mean Percent Administered Dose, Whole Body: 96.9%
Healthy adults; N = 12
  mean peak uptake, brain: approximately 8.3 % of the injected activity
  mean peak uptake, kidneys: approximately 9.4 % of the injected activity
  mean peak uptake, liver: approximately 19.1 % of the injected activity
Healthy adults; [1]
  Residence Time, Mean, Brain: 0.14 h and 0.138 h
  Residence Time, Mean, GI Stomach Wall: 0.033 h
  Residence Time, Mean, Heart Wall: 0.0728 h
  Residence Time, Mean, Kidneys: 0.0952 h
  Residence Time, Mean, Liver: 0.28 h and 0.277 h
  Residence Time, Mean, Red Marrow: 0.0886 h
  Residence Time, Mean, Remainder of Body: 1.8 h and 1.84 h
  Residence Time, Mean, Salivary: 0.0148 h
  Residence Time, Mean, Spleen: 0.0101 h
  Residence Time, Mean, Thyroid: 0.00331 h
  Residence Time, Mean, Urinary Bladder: 0.0265 h
Healthy adults; [2]
  high and sustained heart retention of ^18F, through time after injection: approximately 5 hours
  time of liver clearing after injection: approximately 2 hours
Anesthetized naive dogs
  dose without cardiovascular changes (MAP, HR, left ventricular contractility etc): ≤ 0.01 mg/kg
